Data set [1] is described as follows: Critical micellar concentration (CMC) determination with ANS fluorescent probe. Conditions: ANS fluorescence (70 μM ANS, λex 356 nm, emission 465 nm) in water, peptide 0.8–10.0 μM, 298 K, intersection of the two lines. It is filed as physicochemical. The method, then:
Lipopeptides usually self-assemble in organized structures that have attracted interest because of their enhanced bactericidal and fungicidal effects. The self-assembly of myristoylated peptides was evaluated by determining the critical micellar concentration (CMC) that represents the concentration of spontaneous associations of monomers by a spectrofluorometric method. 8-anilinonaphtalene-1-sulfonate (ANS) was used as a fluorescent probe since its fluorescence is very sensitive to the microenvironment, showing a blue shift and intensity increase upon changing from a polar to non-polar medium. Therefore, the fluorescence of ANS was monitored as a function of the lipopeptide concentration. […] Fluorescence intensity slowly increases up to a certain lipopeptide concentration and then breaks abruptly, indicating a sudden change in the aggregation state of lipopeptides. For each peptide, the critical micellar concentration (CMC) was evaluated by the intersection of the two lines. […] All the steady-state fluorescence measurements were carried out using a Perkin Elmer LS55 fluorescence spectrophotometer. All the experiments were conducted at 298 K in a thermostatic cell holder and in 20 mM phosphate buffer at pH 7.4 containing 0.8 mM EDTA and 150 mM NaCl unless otherwise specified. The CMC of the N-terminal myristoylated peptides was determined in water by fluorescence spectroscopy using 8-anilinonaphtalene-1-sulfonate (ANS) as the fluorescent probe. […] The ANS was excited at λex = 356 nm, and the fluorescence spectrum was measured for λem = 400–670 nm with excitation and emission bandwidths of 5 nm.

Data set [2] in a line: Membrane partition, Trp-1 fluorescence upon titration with LUVs. It is filed as binding. Conditions: for KX (mole fraction partition constant): peptide 1.0 μM, 20 mM phosphate pH 7.4, 150 mM NaCl, 0.8 mM EDTA, 298 K, Trp fluorescence, quadruplicate; for ΔG: ΔG = −RT lnKx; for Selectivity Ratio: ratio between partition constants in anionic (POPC/POPG) and zwitterionic (POPC) membranes. The method, then: To quantify the interaction of different lipidated and non-lipidated peptides with membrane mimetic systems, we measured the intrinsic fluorescence of Trp-1 upon partition with LUVs (large unilamellar vesicles) of different compositions. Briefly, the mixtures of POPC/POPG (70%/30% w/w) LUVs were used to mimic anionic membranes and POPC only to mimic zwitterionic membranes. […] The mole fraction partition constants Kx were calculated from the partition isotherms as previously described. Figure 2 reports the partition isotherms for the titration of myristoylated and non-myristoylated peptides with POPC and POPC/POPG vesicles.
The values of Kx for all peptides are reported in Table 2 together with ΔG values, calculated using the expression ΔG = −RT lnKx, and the selectivity ratio defined as the ratio between partition constants determined in anionic and zwitterionic membranes. Higher values of the selectivity ratio represent a preference of the peptide for anionic vesicles, while lower values indicate a preference for the zwitterionic one.
The lipids POPC (1-palmitoyl-2-oleoyl-sn-glycero-3-phosphocholine) and POPG (1-palmitoyl-2-oleoyl-sn-glycero-3-phosphoglycerol) were purchased from Avanti Polar Lipids (Alabaster, AL, USA) and used without further purification. LUVs (Large Unilamellar Vesicles) were prepared as previously reported. Briefly, appropriate amounts of lipids were dissolved in chloroform/methanol 9:1. The solvent was then removed by rotary evaporation and samples were placed overnight under a high vacuum. The lipid film was then hydrated by adding 1 mL of buffer (20 mM phosphate buffer at pH 7.4 with 150 mM NaCl and 0.8 mM EDTA) and then subjected to 5 freeze–thaw cycles and vortexed. The multilamellar vesicles (MLVS) were extruded through a polycarbonate membrane with pores of 100 nm by an Avanti polar mini extruder, and the obtained LUVs were used within 48 h of preparation. LUVs were composed of 100% POPC and a 70%/30% (w/w) combination of POPC/POPG. The final concentration of the lipid was 10 mM.
All the steady-state fluorescence measurements were carried out using a Perkin Elmer LS55 fluorescence spectrophotometer. All the experiments were conducted at 298 K in a thermostatic cell holder and in 20 mM phosphate buffer at pH 7.4 containing 0.8 mM EDTA and 150 mM NaCl unless otherwise specified.
Since all peptides contain tryptophan, fluorescence spectroscopy is an appropriate tool for studying these molecules. Peptide partitioning between buffer and lipid vesicles was monitored by measuring the increase in tryptophan fluorescence upon the addition of LUVs. Trp fluorescence spectra were recorded with λexc = 295 nm and scanning the emission between 305 and 400 nm. Measurements were carried out with a cross-oriented configuration of polarizers (polem = 0° and polexc = 90°). Briefly, a 1.0 μM solution of the peptide was titrated with LUVs of different compositions (POPC 100% and 70%/30% POPC/POPG) as previously described. The background effects of vesicles and buffer were subtracted from each spectrum. All the fluorescence emissions were corrected for dilution. Mole fraction partition coefficients Kx were calculated from the fraction of the partitioned peptide fp as previously described. The fraction of the partitioned peptide fp is given by the following equation [53] (6) fp=Kx[L]/[W]+Kx[L] where Kx is the mole fraction partition constant, and [L] and [W] are the molar concentrations of lipids and water, respectively.

The subject of data set [3] is C. auris clinical isolates. Type of data set: cell-based, Candida auris. Conditions: for MIC: CLSI broth microdilution, RPMI 1640. The method, then: (§1) The antifungal activity of AMPs was determined against 50 clinical isolates, 10 for each of the following Candida species: C. albicans, C. tropicalis, C. glabrata, C. parapsilosis, and C. auris. The latter were derived from patients with positive blood cultures in four hospitals in India, with known resistance profiles to fluconazole, voriconazole, and echinocandins. Yeast cells were grown in Brain Heart Infusion (BHI) medium (Sigma-Aldrich, Gillingham, UK) for 16 h at 37 °C in a 150-rpm orbital shaker. Cells were then sub-inoculated in a fresh BHI medium and grown to an optical density (OD) of 0.3. The turbidity of the inoculum was adjusted to 0.5 McFarland and diluted 1:500 in RPMI 1640 broth, corresponding to around […].
(§2) Minimal inhibitory concentrations (MICs) were determined by Broth microdilution susceptibility tests, according to The Clinical and Laboratory Standards Institute (CLSI) international guidelines. A fungal suspension of 0.5 MacFarland was diluted 1:500 in RPMI 1640 broth and incubated in 96 multi-well plates containing AMPs at different concentrations ranging from 0.125 to 256 μg/mL. In this range of concentration, lipopeptides were completely soluble. […] The MIC90 represents the value at which ≥90% of the strains within a test population were inhibited.

For data set [4], the system named is C. albicans clinical isolates. It is filed as cell-based, Candida albicans. Conditions: 16 h. The method, then:
as §1, §2

Data set [5] deals with C. glabrata clinical isolates. Type of data set: cell-based, Candida glabrata. The following applies: 16 h. The method, then:
as §1, §2

≈ marks a conversion by molar mass, not a printed value. Like-named read-outs stand apart in the source and are kept apart here. Where a SMILES comes first, the peptide text is derived from it. The star is where a group is joined. Myristoyl = CCCCCCCCCCCCCC(=O)*

`CCCCCCCCCCCCCC(=O)N[C@@H](Cc1c[nH]c2ccccc12)C(=O)N[C@H](C(=O)N[C@H](C(=O)N[C@@H](CCCCN)C(=O)N[C@@H](CCCCN)C(=O)N[C@H](C(=O)N[C@@H](CCCCN)C(=O)NCC(=O)N[C@@H](CC(C)C)C(=O)N[C@@H](CC(C)C)C(=O)N[C@@H](CCCCN)C(=O)O)C(C)C)C(C)C)C(C)C` [Myr-C] (Myristoyl-WVVKKVKGLLK-OH; C-terminus assumed): the “critical micellar concentration (CMC)” value in data set [1] was determined as 5.1 ± 0.4 µM. Also, the “KX (mole fraction partition constant)” value in data set [2] (POPC LUVs) is reported as “(4.9 ± 0.3) × 10^5”; in data set [2] (POPC/POPG 70%/30% LUVs) it was “(1.2 ± 0.2) × 10^6”. For the same compound, the ΔG is -7.753 kcal/mol in data set [2] (POPC LUVs) and -8.293 kcal/mol in data set [2] (POPC/POPG LUVs). Further, the “Selectivity Ratio” value in data set [2] is on record as 2.45. The MIC in data set [3] (isolate Candida Auris 1) was 16 µg/mL (≈ 10.6 µM); in data set [3] (isolate Candida Auris 2), 16 µg/mL (≈ 10.6 µM); in data set [3] (isolate Candida Auris 3), 32 µg/mL (≈ 21.2 µM); in data set [3] (isolate Candida Auris 4) it was 32 µg/mL (≈ 21.2 µM); in data set [3] (isolate Candida Auris 5) it was 64 µg/mL (≈ 42.4 µM); in data set [3] (isolate Candida Auris 6), 32 µg/mL (≈ 21.2 µM). Besides, the MIC came to 32 µg/mL (≈ 21.2 µM) in data set [3] (isolate Candida Auris 7); 32 µg/mL (≈ 21.2 µM) in data set [3] (isolate Candida Auris 8); 16 µg/mL (≈ 10.6 µM) in data set [3] (isolate Candida Auris 9); 32 µg/mL (≈ 21.2 µM) in data set [3] (isolate Candida Auris 10); 32 µg/mL (≈ 21.2 µM) in data set [4]; 32 µg/mL (≈ 21.2 µM) in data set [5]. Moreover, the MIC90 in data set [4] and in data set [5] was 32 µg/mL (≈ 21.2 µM) in each case.
Consider `CCCCCCCCCCCCCC(=O)N[C@@H](Cc1c[nH]c2ccccc12)C(=O)N[C@@H](CCCNC(=N)N)C(=O)NCC(=O)N[C@H](C(=O)N[C@H](C(=O)N[C@@H](CCCCN)C(=O)N[C@H](C(=O)N[C@H](C(=O)N[C@@H](CCCCN)C(=O)N[C@@H](CCCCN)C(=O)N[C@H](C(=O)O)C(C)C)C(C)C)C(C)C)[C@@H](C)O)[C@@H](C)CC` [Myr-B] (Myristoyl-WRGITKVVKKV-OH; C-terminus assumed), for which the “critical micellar concentration (CMC)” value in data set [1] was 5.1 ± 0.8 µM. The figures for the “KX (mole fraction partition constant)” value in data set [2] (POPC LUVs) and in data set [2] (POPC/POPG 70%/30% LUVs) were “(4.7 ± 0.6) × 10^5” and “(1.7 ± 0.2) × 10^6”, respectively. Moreover, the values for the ΔG in data set [2] (POPC LUVs) and in data set [2] (POPC/POPG LUVs) were -7.737 kcal/mol and -8.499 kcal/mol, respectively. Also, the “Selectivity Ratio” value in data set [2] stood at 3.62. Also, the MIC90 in data set [3] (clinical isolates, 16 h) came to 20 µM; in data set [4], 16 µg/mL (≈ 10.5 µM); in data set [5], 32 µg/mL (≈ 21 µM). Besides, the “MIC (Range)” value in data set [3] (clinical isolates, 16 h) was in the range of 16 to 32 µg/mL; in data set [5], 16 to 32 µg/mL. Besides, the MIC in data set [3] (isolate Candida Auris 1) came out at 8 µg/mL (≈ 5.25 µM); in data set [3] (isolate Candida Auris 2) it was 8 µg/mL (≈ 5.25 µM); in data set [3] (isolate Candida Auris 3) it was 16 µg/mL (≈ 10.5 µM); in data set [3] (isolate Candida Auris 4), 32 µg/mL (≈ 21 µM); in data set [3] (isolate Candida Auris 5) it was 32 µg/mL (≈ 21 µM); in data set [3] (isolate Candida Auris 6) it was 16 µg/mL (≈ 10.5 µM). Besides, the MIC in data set [3] (isolate Candida Auris 7) worked out at 16 µg/mL (≈ 10.5 µM); in data set [3] (isolate Candida Auris 8), 16 µg/mL (≈ 10.5 µM); in data set [3] (isolate Candida Auris 9), 32 µg/mL (≈ 21 µM); in data set [3] (isolate Candida Auris 10), 32 µg/mL (≈ 21 µM); in data set [4], 16 µg/mL (≈ 10.5 µM).
For `CCCCCCCCCCCCCC(=O)N[C@@H](Cc1c[nH]c2ccccc12)C(=O)N[C@@H](Cc1ccccc1)C(=O)NCC(=O)N[C@@H](CCCCN)C(=O)N[C@@H](CC(C)C)C(=O)N[C@@H](Cc1ccc(O)cc1)C(=O)N[C@@H](CCCNC(=N)N)C(=O)NCC(=O)N[C@H](C(=O)N[C@H](C(=O)N[C@@H](CCCCN)C(=O)O)[C@@H](C)O)[C@@H](C)CC` [Myr-A] (Myristoyl-WFGKLYRGITK-OH; C-terminus assumed), the “critical micellar concentration (CMC)” value in data set [1] is 4.7 ± 0.8 µM. In addition, the figures for the “KX (mole fraction partition constant)” value in data set [2] (POPC LUVs) and in data set [2] (POPC/POPG 70%/30% LUVs) were “(1.03 ± 0.04) × 10^5” and “(4.3 ± 0.8) × 10^5”, respectively. Further, the values for the ΔG in data set [2] (POPC LUVs) and in data set [2] (POPC/POPG LUVs) were -6.831 kcal/mol and -7.684 kcal/mol, respectively. The “Selectivity Ratio” value in data set [2] amounted to 4.17. Also, the MIC90 in data set [3] (clinical isolates, 16 h) is above 256 µg/mL; in data set [4], 16 µg/mL (≈ 10.1 µM); in data set [5], 16 µg/mL (≈ 10.1 µM). In addition, the MIC in data set [3] (isolate Candida Auris 1), in data set [3] (isolate Candida Auris 2), in data set [3] (isolate Candida Auris 3), in data set [3] (isolate Candida Auris 4), in data set [3] (isolate Candida Auris 5) and in data set [3] (isolate Candida Auris 6) was above 256 µg/mL each time. Moreover, the MIC in data set [3] (isolate Candida Auris 7) is above 256 µg/mL; in data set [3] (isolate Candida Auris 8) it was above 256 µg/mL; in data set [3] (isolate Candida Auris 9) it was above 256 µg/mL; in data set [3] (isolate Candida Auris 10) it was above 256 µg/mL; in data set [5] it was 16 µg/mL (≈ 10.1 µM). Moreover, the “MIC (Range)” value in data set [4] is 8 to 16 µg/mL.

The values above are taken from paper PMC8875392, “Design and Characterization of Myristoylated and Non-Myristoylated Peptides Effective against Candida spp. Clinical Isolates” (International Journal of Molecular Sciences, 2022).
